{"source": "ChEMBL document CHEMBL4715822", "about": "“Structure-based lead optimization to improve antiviral potency and ADMET properties of phenyl-1H-pyrrole-carboxamide entry inhibitors targeted to HIV-1 gp120” (Eur J Med Chem, 2018)", "data": [{"tested_on": "TZM", "test": "(§1) Cytotoxicity against human TZM-bl cells assessed as reduction in cell viability incubated for 3 days by XTT assay", "type": "cell-based", "conditions": "tzm, 72 h, time 3 day", "units": {"CC50": "µM"}, "values": [{"molecule": "NC[C@@H](NC(=O)c1ccc(-c2cc(F)c(Cl)c(F)c2)[nH]1)c1nc(CO)cs1", "CC50": 27.7}, {"molecule": "NC[C@H](NC(=O)c1ccc(-c2ccc(C(F)(F)F)cc2)[nH]1)c1ncc(CO)s1", "CC50": 35.6}, {"molecule": "NC[C@@H](NC(=O)c1ccc(-c2ccc(C(F)(F)F)c(F)c2)[nH]1)c1nc(CO)cs1", "CC50": 17.3}]}, {"tested_on": "not listed separately", "test": "as §1", "type": "cell-based", "conditions": "TZM-bl cells, time 3 day", "units": {"CC50 at 72 h": "µM"}, "values": [{"molecule": "NC[C@@H](NC(=O)c1ccc(-c2cc(F)c(Cl)c(F)c2)[nH]1)c1ncc(CO)o1", "CC50 at 72 h": 30.9}, {"molecule": "NC[C@@H](NC(=O)c1ccc(-c2cc(F)c(C(F)(F)F)c(F)c2)[nH]1)c1ncc(CO)s1", "CC50 at 72 h": 23.5}, {"molecule": "NC[C@H](NC(=O)c1ccc(-c2cc(F)c(C(F)(F)F)c(F)c2)[nH]1)c1ncc(CO)s1", "CC50 at 72 h": 23}, {"molecule": "NC[C@H](NC(=O)c1ccc(-c2cc(F)c(Cl)c(F)c2)[nH]1)c1ncc(CO)o1", "CC50 at 72 h": 27.7}, {"molecule": "NC[C@@H](NC(=O)c1ccc(-c2cc(F)c(Cl)c(F)c2)[nH]1)c1ncc(CO)s1", "CC50 at 72 h": 20.6}]}, {"tested_on": "not listed separately", "test": "(§2) Cytotoxicity against human MT2 cells assessed as reduction in cell viability incubated for 4 days by XTT assay", "type": "cell-based", "conditions": "MT2 cells, time 4 day", "units": {"CC50 at 96 h": "µM"}, "values": [{"molecule": "NC[C@@H](NC(=O)c1ccc(-c2cc(F)c(Cl)c(F)c2)[nH]1)c1ncc(CO)o1", "CC50 at 96 h": 44.7}, {"molecule": "NC[C@@H](NC(=O)c1ccc(-c2cc(F)c(C(F)(F)F)c(F)c2)[nH]1)c1ncc(CO)s1", "CC50 at 96 h": 15.5}, {"molecule": "NC[C@H](NC(=O)c1ccc(-c2cc(F)c(C(F)(F)F)c(F)c2)[nH]1)c1ncc(CO)s1", "CC50 at 96 h": 14.3}, {"molecule": "NC[C@H](NC(=O)c1ccc(-c2cc(F)c(Cl)c(F)c2)[nH]1)c1ncc(CO)o1", "CC50 at 96 h": 26.5}, {"molecule": "NC[C@@H](NC(=O)c1ccc(-c2cc(F)c(Cl)c(F)c2)[nH]1)c1ncc(CO)s1", "CC50 at 96 h": 17.4}]}, {"tested_on": "MT2", "test": "as §2", "type": "cell-based", "conditions": "mt2, 96 h, time 4 day", "units": {"CC50": "µM"}, "values": [{"molecule": "NC[C@@H](NC(=O)c1ccc(-c2cc(F)c(Cl)c(F)c2)[nH]1)c1nc(CO)cs1", "CC50": 29.6}, {"molecule": "NC[C@H](NC(=O)c1ccc(-c2ccc(C(F)(F)F)cc2)[nH]1)c1ncc(CO)s1", "CC50": 36}, {"molecule": "NC[C@@H](NC(=O)c1ccc(-c2ccc(C(F)(F)F)c(F)c2)[nH]1)c1nc(CO)cs1", "CC50": 20.5}]}]}
